Test results published in article PMC4036227 (Journal of medicinal chemistry, 2013).
Where two headings read alike, the source gives them in different places.

Assays:
[1] = molecular target: T1, S31N mutant M2 proton channel (full length AM2 protein) (Influenza A virus, UniProt P0DOF5, S31N); format: biochemical; details: 100 µM
[2] = test system: A/WSN/33-N31S (WT) virus; format: cell-based
[3] = molecular target: T1, S31N mutant M2 proton channel (full length AM2 protein); details: cited from earlier work

Molecule	S31N % inhibition (TEVC) [1]	also measured
NC12CC3CC(CC(C3)C1)C2 [Compound 1, amantadine]	35 ± 2/ %	–
CC(N)C12CC3CC(CC(C3)C1)C2 (stereo not shown) [Compound 2, rimantadine]	13%	–
COC(=O)[C@H](Cc1cnc[nH]1)NCC12CC3CC(CC(C3)C1)C2 [Compound 3]	0%	–
C[C@@H]1[C@@H](/N=C/c2ccc(O)cc2)C[C@H]2C[C@@H]1C2(C)C [Compound 4]	0%	–
c1ccc(CNC23CC4CC(CC(C4)C2)C3)nc1 [Compound 33]	0%	–
Oc1ccc(CNC23CC4CC(CC(C4)C2)C3)c(O)c1 [Compound 44, 4-(adamantan-1-ylaminomethyl)-benzene-1,3-diol]	–	inhibition of plaque formation, WT virus [2]: complete inhibition
pinanamine	–	S31N % inhibition (TEVC) [3]: 0%
